Among the data in patent US6909000B2, “Bridged bicyclic serine protease inhibitors” (Vertex Pharmaceuticals Incorporated, priority 2001, dated 2005) are Ki and IC50 values, retold here.

One assay deals with HCV NS3-NS4A protease (Hepatitis C virus genotype 1a, UniProt P27958). The assay is described as follows: Ki determination, HPLC microbore assay with 5AB peptide substrate, tNS3 and KK4A cofactor. The class given is biochemical. As for the experimental part:
The Ki determinations were performed as follows. The Ki values for some compounds of the present invention are recited above in Table 1.
HPLC Microbore Method for Separation of 5AB Substrate and Products Substrate
NH2-Glu-Asp-Val-Val-(alpha)Abu-Cys-Ser-Met-Ser-Tyr-COOH Stock solution of 20 mM 5AB was made in DMSO w/0.2M DTT. This was stored in aliquots at −20 C.
Buffer: 50 mM HEPES, pH 7.8; 20% glycerol; 100 mM NaCl Total assay volume was 200 μL
The buffer was combined with KK4A, DTT, and tNS3; 177 μL of this solution was distributed each into wells of 96 well plate and incubated at 30° C. for ˜5-10 min. 3 μL of appropriate concentration of test compound dissolved in DMSO (DMSO only for control) was added to each well and incubate at 30° C. for 15 min. Reaction was initiated by addition of 20 μL of 200 μM 5AB substrate (20 μM concentration is equivalent or slightly lower than the Km for 5AB) and incubated for 20 min at 30° C. The reaction was terminated by addition of 50 μL of 10% TFA 200 μL aliquots were transferred to HPLC vials The SMSY product was isolated from substrate and KK4A by the method which follows. Microbore Separation Method • Instrumentation: • Hewlett Packard 1100 • Degasser G1322A • Binary pump G1312A • Autosampler G1313A • Column themostated chamber G1316A • Diode array detector G1315A • Column: Phenomenex Jupiter; 5 micron C18; 300 angstroms; • 150×2 mm; P/O 00F-4053-B0 • Column thermostat: 40° C. • Injection volume: 100 μL • Solvent A=HPLC grade water+0.1% TFA • Solvent B=HPLC grade acetonitrile+0.1% TFA
• Stop time: 17 min • Post-run time: 10 min

For assay [1], the system named is Cells containing hepatitis C virus (HCV) replicon. The assay is described as follows: HCV replicon cell assay, Taqman real-time RT-PCR of HCV RNA level. The class given is cell-based. The note with it: read-out: IC50 (concentration at which 50% inhibition of HCV RNA level is observed). As for the experimental part: As set forth above, the compounds of this invention are capable of inhibiting the activity of HCV NS3-NS4A protease. In order to quantitate the activity of the compounds of this invention, cells containing HCV replicon were incubated with the compounds of this invention, and a Taqman Real Time PCR assay was conducted to determine the percentage inhibition of HCV RNA level and the IC50 were calculated therefrom. The result are shown below in Table 1:
Cells containing hepatitis C virus (HCV) replicon were maintained in DMEM containing 10% fetal bovine serum (FBS), 0.25 mg per ml of G418, with appropriate supplements (media A).
On day 1, replicon cell monolayer was treated with a trypsin:EDTA mixture, removed, and then dilutedh media A into a final concentration of 100,000 cells per ml wit. 10,000 cells in 100 ul are plated into each well of a 96-well tissue culture plate, and culture overnight in a tissue culture incubator at 37° C.
On day 2, compounds (in 100% DMSO) were serially diluted into DMEM containing 2% FBS, 0.5% DMSO, with appropriate supplements (media B). The final concentration of DMSO was maintained at 0.5% throughout the dilution series.
The media on the replicon cell monolayer was removed, and then media B containing various concentrations of compounds was added. Media B without any compound was added to other wells as no compound controls.
Cells were incubated with compound or 0.5% DMSO in media B for 48 hours in a tissue culture incubator at 37° C.
At the end of the 48-hour incubation, the media was removed, and the replicon cell monolayer was washed once with PBS and stored at −80° C. prior to RNA extraction.
Culture plates with treated replicon cell monolayers were thawed, and a fixed amount of another RNA virus, such as Bovine Viral Diarrhea Virus (BVDV) was added to cells in each well. RNA extraction reagents (such as reagents from RNeasy kits) were added to the cells immediately to avoid degradation of RNA. Total RNA was extracted according the instruction of manufacturer with modification to improve extraction efficiency and consistency. Finally, total cellular RNA, including HCV replicon RNA, was eluted and stored at −80° C. until further processing.
A Taqman real-time RT-PCR quantification assay was set up with two sets of specific primers and probe. One was for HCV and the other was for BVDV. Total RNA extractants from treated HCV replicon cells were added to the PCR reactions for quantification of both HCV and BVDV RNA in the same PCR well. Experimental failure was flagged and rejected based on the level of BVDV RNA in each well. The level of HCV RNA in each well was calculated according to a standard curve that is run in the same PCR plate. The percentage of inhibition or decrease of HCV RNA level due to compound treatment was calculated using the DMSO or no compound control as 0% of inhibition. The IC50 (concentration at which 50% inhibition of HCV RNA level is observed) was calculated from the titration curve of any given compound.

[2] abbreviates: HCV replicon cells, 48 hours incubation, 2% FBS, 0.5% DMSO.
Setting [3] is: 25 nM tNS3, 25 μM KK4A, 20 μM 5AB substrate, 30° C., pH 7.8, read-out: Ki.

Where two headings read alike, the source gives them in different places. Where only a bound is given, the exact number is not on record here.

Chain of HCV NS3-NS4A protease (P27958 1027-1208, other chains not shown): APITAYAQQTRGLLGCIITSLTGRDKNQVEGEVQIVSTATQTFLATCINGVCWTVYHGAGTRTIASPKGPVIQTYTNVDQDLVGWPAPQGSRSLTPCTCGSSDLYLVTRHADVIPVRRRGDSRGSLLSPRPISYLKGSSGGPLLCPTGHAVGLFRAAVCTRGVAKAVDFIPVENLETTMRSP

As to `CCC[C@H](NC(=O)[C@@H]1[C@H]2CC[C@H](CC2)N1C(=O)C(NC(=O)[C@@H](NC(=O)c1cnccn1)C1CCCCC1)C(C)(C)C)C(=O)C(=O)NC1CC1` (some centres unmarked) [Cmpd 14], on HCV NS3-NS4A protease, the affinity corresponds to a Ki of 0.125 µM. Also, the IC50 in assay [1] (setting [2]) came to 1.24 µM.

Take `CCCC(NC(=O)[C@@H]1[C@H]2CC[C@H](C2)N1C(=O)[C@@H](NC(=O)[C@@H](NC(=O)c1cnccn1)C1CCCCC1)C(C)(C)C)C(=O)C(=O)N[C@@H](C)c1ccccc1` (some centres unmarked) [Cmpd 8]: the Ki (as a rule, a dissociation constant, usually derived from enzyme kinetics or from competition with a known ligand) at HCV NS3-NS4A protease came out at 0.11 µM. Further, the IC50 in assay [1] (setting [2]) turned out to be 0.679 µM.

At HCV NS3-NS4A protease, `CCC[C@H](NC(=O)[C@@H]1[C@H]2CC[C@H](C2)N1C(=O)[C@@H](NC(=O)[C@@H](NC(=O)c1ncc[nH]1)C1CCCCC1)C(C)(C)C)C(=O)C(=O)NC1CC1` [Cmpd 13] returned a Ki of 0.042 µM. Besides, the IC50 in assay [1] (setting [2]) stood at 0.251 µM.

`CCC[C@H](NC(=O)[C@@H]1[C@H]2CC[C@H](C2)N1C(=O)[C@@H](NC(=O)[C@@H](NC(=O)[C@H](C)NC(=O)C(C)(C)C)C1CCCCC1)C(C)(C)C)C(=O)C(=O)NC1CC1` [Cmpd 15]: the affinity at HCV NS3-NS4A protease corresponds to a Ki of 0.066 µM. In assay [1] (setting [2]), the IC50 is 1.29 µM.

Take `CCC[C@H](NC(=O)[C@@H]1[C@H]2CC[C@H](C2)N1C(=O)[C@@H](NC(=O)[C@@H](NC(=O)[C@H](C)NS(C)(=O)=O)C1CCCCC1)C(C)(C)C)C(=O)C(=O)NC1CC1` [Cmpd 9]: the Ki at HCV NS3-NS4A protease (setting [3]) was 0.055 µM. Besides, the IC50 in assay [1] (48 h) turned out to be 4.31 µM.

`CCC[C@H](NC(=O)C1[C@H]2CC[C@H](C2)N1C(=O)[C@@H](NC(=O)[C@@H](NC(=O)c1cnccn1)C1CCCCC1)C(C)(C)C)C(=O)C(=O)NC1CC1` (some centres unmarked) [Cmpd 2] had an inhibitory constant (Ki) at HCV NS3-NS4A protease of 0.09 µM. In addition, the IC50 in assay [1] (setting [2]) came to 0.886 µM.

At HCV NS3-NS4A protease, `CCC[C@H](NC(=O)[C@@H]1[C@H]2CC[C@H](C2)N1C(=O)[C@@H](NC(=O)[C@@H](NC(=O)c1[nH]c(C)c(C)c1C(C)=O)C1CCCCC1)C(C)(C)C)C(=O)C(=O)NC1CC1` [Cmpd 16] registered an inhibitory constant (Ki) of 0.054 µM. The IC50 in assay [1] (setting [2]) was under 0.1 µM.

For the compound `CCCC(NC(=O)[C@@H]1[C@H]2CC[C@H](C2)N1C(=O)[C@@H](NC(=O)[C@@H](NC(=O)[C@H](CNC(=O)OC)NC(=O)OC)C1CCCCC1)C(C)C)C(=O)C(=O)N[C@@H](C)c1ccccc1` (some centres unmarked) [Cmpd 6], on HCV NS3-NS4A protease, the Ki was 0.096 µM. Besides, the IC50 in assay [1] (setting [2]) came to 2.65 µM.

The compound `CCCC(NC(=O)[C@@H]1[C@H]2CC[C@H](C2)N1C(=O)[C@@H](NC(=O)[C@@H](NC(=O)[C@H](CNC(=O)OC)NC(=O)OC)C1CCCCC1)C(C)(C)C)C(=O)C(=O)NC1CC1` (some centres unmarked) [Cmpd 5] returned an inhibitory constant (Ki) on HCV NS3-NS4A protease of 0.039 µM. The IC50 in assay [1] (setting [2]) came to 1.41 µM.

With `CCC[C@H](NC(=O)[C@@H]1[C@H]2CC[C@H](C2)N1C(=O)[C@@H](NC(=O)[C@@H](NC(=O)c1cnccn1)C1CCCCC1)C(C)C)C(=O)C(=O)NC1CC1` [Cmpd 1], the Ki on HCV NS3-NS4A protease (setting [3]) was determined as 0.22 µM. Also, the IC50 in assay [1] (48 h) was over 1 µM.

Regarding `CCCC(NC(=O)[C@@H]1[C@H]2CC[C@H](C2)N1C(=O)[C@@H](NC(=O)[C@@H](NC(=O)[C@H](C)NS(C)(=O)=O)C1CCCCC1)C(C)(C)C)C(=O)C(=O)N[C@@H](C)c1ccccc1` (some centres unmarked) [Cmpd 11], at HCV NS3-NS4A protease (setting [3]), the inhibition constant (Ki) stood at 0.05 µM. Further, the IC50 in assay [1] (48 h) was 1.23 µM.

Turning to `CCC[C@H](NC(=O)[C@@H]1[C@H]2CC[C@H](C2)N1C(=O)[C@@H](NC(=O)[C@@H](NC(=O)c1ncc[nH]1)C1CCCCC1)C(C)(C)C)C(=O)C(=O)N[C@@H](C)c1ccccc1` [Cmpd 12], the affinity at HCV NS3-NS4A protease, expressed as Ki, was 0.068 µM. The IC50 in assay [1] (setting [2]) was found to be 0.412 µM.

As to `CCCC(NC(=O)[C@@H]1[C@H]2CC[C@H](C2)N1C(=O)[C@@H](NC(=O)[C@@H](NC(=O)[C@H](CNC(=O)OC)NC(=O)OC)C1CCCCC1)C(C)(C)C)C(=O)C(=O)N[C@@H](C)c1ccccc1` (some centres unmarked) [Cmpd 7], on HCV NS3-NS4A protease, the Ki was determined as 0.049 µM. Also, the IC50 in assay [1] (setting [2]) is 0.449 µM.

In the case of `CC(C)(C)[C@H](NC(=O)[C@@H](NC(=O)c1cnccn1)C1CCCCC1)C(=O)N1C(C(=O)NC(CC(F)F)C(=O)C(=O)NC2CC2)[C@H]2CC[C@@H]1C2` (some centres unmarked) [Cmpd 3], affinity on HCV NS3-NS4A protease was put at a Ki of 0.063 µM. In addition, the IC50 in assay [1] (setting [2]) is 0.632 µM.

`C[C@H](NS(C)(=O)=O)C(=O)N[C@H](C(=O)N[C@H](C(=O)N1[C@@H]2CC[C@@H](C2)[C@H]1C(=O)N[C@@H](CC(F)F)C(=O)C(=O)NC1CC1)C(C)(C)C)C1CCCCC1` [Cmpd 10]: on HCV NS3-NS4A protease, the Ki turned out to be 0.028 µM. Also, the IC50 in assay [1] (setting [2]) worked out at 10 µM.

Take `CCCC(NC(=O)[C@@H]1[C@H]2CC[C@H](C2)N1C(=O)[C@@H](NC(=O)[C@@H](NC(=O)[C@H](CNC(=O)OC)NC(=O)OC)C1CCCCC1)C(C)C)C(=O)C(=O)NC1CC1` (some centres unmarked) [Cmpd 4]: the Ki at HCV NS3-NS4A protease worked out at 0.095 µM. In addition, in assay [1] (setting [2]), the IC50 is over 10 µM.
